Results taken from paper PMC11215778 (Journal of Medicinal Chemistry, 2024).
Read-outs that look alike come from different tables or passages of the source.

Legend:
[1] = Cytotoxicity assay (CellTiter-Glo) on normal human dermal fibroblasts; assay type: cell-based; conditions: normal human dermal fibroblasts (NHDF)
Description: The cytotoxicity of the compounds was evaluated in nontumor normal human dermal fibroblasts (NHDF) purchased from ATCC (PCS-201-012, Manassas, VA, USA). The cells were negatively tested for the presence of mycoplasma (cat. #: LT07-318 MycoAlert Mycoplasma Detection kit, Lonza). The cells were cultivated in DMEM high glucose 4.5 g/L medium (cat. #: R8758, Merck, Germany). The medium was supplemented with 10% fetal bovine serum (cat. #: F7524, Merck, Germany; inactivated at 56 °C for 30 min) and 1.0% of L-glutamine (cat. #: G7513, Merck, Germany) without antibiotics. Cells were seeded in 384-well format white micro plates (cat. #: 164610, Nunc, Thermo Fisher Scientific, USA) at a concentration of 60,000 cells per mL and left to rest overnight. Next day, 1 and 10 μM concentrations of the tested compounds were added in triplicates. The cells were cultivated at 37 °C and 5% CO2 for 72 h after which a luminescent cell viability assay (CellTiter-Glo 2.0, cat. #: Promega, Madison, USA) was added. The plate was left on a shaker (350 rpm) in the dark for 20 min at RT. Luminescence was measured by a Spark multimode reader from Tecan (Tecan Group Ltd., Switzerland). The signal of the compound-treated cells was related to the value of the untreated control, which was arbitrarily set to 100% viability.

[2] = Plasma stability assay, human plasma; assay type: in vitro ADME; conditions: pooled plasma, read-out: Plasma stability % remaining at 6 h, hum
Description: […] The reactions were terminated by adding 4 vol of ice-cold methanol, and the samples were then mixed vigorously, frozen at −20 °C for 1 h, and left overnight at 8 °C. After that, the samples were centrifuged, and the supernatant was analyzed by means of LC–MS/MS Sciex 6500 triple quadrupole (Sciex, Framingham, MA, USA). Zero time points were prepared by adding ice-cold methanol to the compound prior to the addition of the plasma.

[3] = Microsomal stability, rat liver microsomes; assay type: in vitro ADME; conditions: pH 7.4; rat liver microsomes
Description: (§1) . Zero time points were prepared by adding ice-cold methanol to a mixture of the compound with cofactors prior to the addition of microsomes. […]. Intrinsic clearance (CLint) was calculated using the following formula: [drawing 1] where V = incubation volume per milligram of microsomal protein (μL/mg) and t1/2 = microsomal half-life.

[4] = Plasma stability assay, rat plasma; assay type: in vitro ADME
[5] = Microsomal stability, human liver microsomes; assay type: in vitro ADME; conditions: pooled liver microsomes, pH 7.4; human liver microsomes 0.5 mg/mL, 10 μM compound; read-out: Microsomal stability CLint, hum
Description: as §1

in vitro = in vitro ADME; conditions: human, Caco-2; for Papp A→B at 3 h, 5 µM: read-out: Caco-2 permeability Papp A–B
Description: A Transwell system consisting of two compartments separated by a monolayer of differentiated Caco-2 cells was employed for the intestinal permeability evaluation. Thanks to the ability of Caco-2 cells to become polarized, bidirectional transport (A–B and B–A) could be measured and the efflux ratio calculated.
The transepithelial bidirectional transport of tested compounds (5 μM, pH 7.4/7.4) across the Caco-2 monolayers was studied using the BD BioCoat HTS Caco-2 assay system (BD Biosciences, Bedford, MA) as described in detail elsewhere.[47] Aliquots were collected from the donor and acceptor compartment at the end of the transport period (3 h), the integrity of monolayers was verified using Lucifer Yellow dye, and the compounds were quantified using LC–MS/MS (Triple Quad 6500+, Sciex). The apparent permeability coefficient (Papp) was calculated from the following equation: Papp = (dQ/dt)/C0 × A, where dQ/dt is the rate of absorption of the drug across the cells, C0 is the donor compartment concentration at time zero, and A is the area of the monolayer. The efflux ratio was expressed as (Papp B–A)/(Papp A–B). Recovery (%) was determined as (total compound mass in donor and receiver compartments at the end of the incubation/initial compound mass in the donor compartment) × 100.

[6] = 10 uM, read-out: NHDF viability at 10 uM (supplement csv)
[7] = 10 μM, untreated control = 100%, read-out: NHDF Viability 10 μM

Compound: O=C(OC[C@@H]1CCCN1)[C@@H]1[C@H]2C[C@H]3c4[nH]c5ccccc5c4CCN3C[C@@H]2CC[C@@H]1O [Compound 4b, 17-α-Hydroxyyohimban-16-α-carboxylic acid (S)-Pyrrolidin-2-ylmethyl Ester]
- viability at 72 h, 1 µM [1]: 112%
- viability at 72 h, 10 µM [1, 6]: 103%
- viability at 72 h, 10 µM [1, 7]: 103%

Compound: O=C(OC[C@H]1CCNC1)[C@@H]1[C@H]2C[C@H]3c4[nH]c5ccccc5c4CCN3C[C@@H]2CC[C@@H]1O [Compound 4j, 17-α-Hydroxyyohimban-16-α-carboxylic Acid (S)-Pyrrolidin-3-ylmethyl Ester]
- remaining at 6 h, 5 μM ([2]; human plasma, 5 μM, 37 °C): 92%
- microsomal CLint at 10 µM [3]: 1 ± 1 µL/min/mg
- viability at 72 h, 1 µM [1]: 104%
- viability at 72 h, 10 µM [1, 6]: 102%
- viability at 72 h, 10 µM [1, 7]: 102%
- remaining at 6 h, 5 μM [4]: 76 ± 3%
- microsomal CLint at 10 µM [5]: 2 µL/min/mg

Compound: O=C(O[C@H]1CCNC1)[C@@H]1[C@H]2C[C@H]3c4[nH]c5ccccc5c4CCN3C[C@@H]2CC[C@@H]1O [Compound 4l, 17-α-Hydroxyyohimban-16-α-carboxylic Acid (S)-Pyrrolidin-3-yl Ester]
- remaining at 6 h, 5 μM ([2]; human plasma, 5 μM, 37 °C): 100%
- recovery at 3 h, 5 µM (in vitro): 112%
- Papp A→B at 3 h, 5 µM (in vitro; 5 μM, pH 7.4/7.4, 3 h): 1 ×10⁻⁶ cm/s
- viability at 72 h, 1 µM [1]: 100%
- viability at 72 h, 10 µM [1, 6]: 94%
- viability at 72 h, 10 µM [1, 7]: 94%
- remaining at 6 h, 5 μM [4]: 80 ± 1%

Compound: O=C(OC[C@@H]1CCNC1)[C@@H]1[C@H]2C[C@H]3c4[nH]c5ccccc5c4CCN3C[C@@H]2CC[C@@H]1O [Compound 4i, 17-α-Hydroxyyohimban-16-α-carboxylic Acid (R)-Pyrrolidin-3-ylmethyl Ester]
- remaining at 6 h, 5 μM ([2]; human plasma, 5 μM, 37 °C): 88 ± 3%
- microsomal CLint at 10 µM [3]: 1 ± 1 µL/min/mg
- viability at 72 h, 1 µM [1]: 109%
- viability at 72 h, 10 µM [1, 6]: 107%
- viability at 72 h, 10 µM [1, 7]: 107%
- remaining at 6 h, 5 μM [4]: 62 ± 7%
- microsomal CLint at 10 µM [5]: 4 ± 1 µL/min/mg

Compound: O=C(OC1CCCNC1)[C@@H]1[C@H]2C[C@H]3c4[nH]c5ccccc5c4CCN3C[C@@H]2CC[C@@H]1O (stereo partly drawn) [Compound 4e, 17-α-Hydroxyyohimban-16-α-carboxylic Acid Piperidine-3-yl Ester]
- viability at 72 h, 1 µM [1]: 84%
- viability at 72 h, 10 µM [1, 6]: 82%
- viability at 72 h, 10 µM [1, 7]: 82%

Compound: O=C(OCC1CNC1)[C@@H]1[C@H]2C[C@H]3c4[nH]c5ccccc5c4CCN3C[C@@H]2CC[C@@H]1O [Compound 4f, 17-α-Hydroxyyohimban-16-α-carboxylic Acid Azetidin-3-ylmethyl Ester]
- viability at 72 h, 1 µM [1]: 119%
- viability at 72 h, 10 µM [1, 6]: 119%
- viability at 72 h, 10 µM [1, 7]: 119%

Compound: O=C(OC1CCNCC1)[C@@H]1[C@H]2C[C@H]3c4[nH]c5ccccc5c4CCN3C[C@@H]2CC[C@@H]1O [Compound 4d, 17-α-Hydroxyyohimban-16-α-carboxylic Acid Piperidine-4-yl Ester]
- remaining at 6 h, 5 μM ([2]; human plasma, 5 μM, 37 °C): 100 ± 1%
- recovery at 3 h, 5 µM (in vitro): 101%
- Papp A→B at 3 h, 5 µM (in vitro; 5 μM, pH 7.4/7.4, 3 h): 1 ×10⁻⁶ cm/s
- Papp B→A at 3 h, 5 µM (in vitro; 5 μM, pH 7.4/7.4, 3 h, read-out: Caco-2 permeability Papp B–A): 2 ×10⁻⁶ cm/s
- viability at 72 h, 1 µM [1]: 107%
- viability at 72 h, 10 µM [1, 6]: 104%
- viability at 72 h, 10 µM [1, 7]: 104%
- remaining at 6 h, 5 μM [4]: 87%

Compound: O=C(O[C@@H]1CCNC1)[C@@H]1[C@H]2C[C@H]3c4[nH]c5ccccc5c4CCN3C[C@@H]2CC[C@@H]1O [Compound 4k, 17-α-Hydroxyyohimban-16-α-carboxylic Acid (R)-Pyrrolidin-3-yl Ester]
- remaining at 6 h, 5 μM ([2]; human plasma, 5 μM, 37 °C): 95 ± 5%
- recovery at 3 h, 5 µM (in vitro): 101%
- Papp A→B at 3 h, 5 µM (in vitro; 5 μM, pH 7.4/7.4, 3 h): 1 ×10⁻⁶ cm/s
- microsomal CLint at 10 µM [3]: 1 ± 1 µL/min/mg
- viability at 72 h, 1 µM [1]: 99%
- viability at 72 h, 10 µM [1, 6]: 91%
- viability at 72 h, 10 µM [1, 7]: 91%
- remaining at 6 h, 5 μM [4]: 110 ± 3%
- microsomal CLint at 10 µM [5]: 3 ± 2 µL/min/mg

Compound: O=C(NC1CNC1)[C@@H]1[C@H]2C[C@H]3c4[nH]c5ccccc5c4CCN3C[C@@H]2CC[C@@H]1O [Compound 5b, 17-α-Hydroxyyohimban-16-α-carboxylic Acid N-(Azetidin-3-yl)amide]
- viability at 72 h, 1 µM [1]: 88%
- viability at 72 h, 10 µM [1, 6]: 88%
- viability at 72 h, 10 µM [1, 7]: 88%

Compound: O=C(OC[C@H]1CCN1)[C@@H]1[C@H]2C[C@H]3c4[nH]c5ccccc5c4CCN3C[C@@H]2CC[C@@H]1O [Compound 4g, 17-α-Hydroxyyohimban-16-α-carboxylic Acid (R)-Azetidin-2-ylmethyl Ester]
- remaining at 6 h, 5 μM ([2]; human plasma, 5 μM, 37 °C): 118 ± 3%
- microsomal CLint at 10 µM [3]: 1 ± 1 µL/min/mg
- viability at 72 h, 1 µM [1]: 120%
- viability at 72 h, 10 µM [1, 6]: 120%
- viability at 72 h, 10 µM [1, 7]: 120%
- remaining at 6 h, 5 μM [4]: 134 ± 1%
- microsomal CLint at 10 µM [5]: 4 ± 1 µL/min/mg

Compound: O=C(N[C@H]1CCNC1)[C@@H]1[C@H]2C[C@H]3c4[nH]c5ccccc5c4CCN3C[C@@H]2CC[C@@H]1O [Compound 5a, 17-α-Hydroxyyohimban-16-α-carboxylic Acid (S)-N-(Pyrrolidin-3-yl)amide]
- remaining at 6 h, 5 μM ([2]; human): 100 ± 1%
- viability at 72 h, 1 µM [1]: 90%
- viability at 72 h, 10 µM [1, 6]: 88%
- viability at 72 h, 10 µM [1, 7]: 88%
- remaining at 6 h, 5 μM [4]: 114 ± 2%

Compound: O=C(OC[C@H]1CCCN1)[C@@H]1[C@H]2C[C@H]3c4[nH]c5ccccc5c4CCN3C[C@@H]2CC[C@@H]1O [Compound 4a, 17-α-Hydroxyyohimban-16-α-carboxylic acid (R)-Pyrrolidin-2-ylmethyl Ester]
- remaining at 6 h, 5 μM ([2]; human plasma, 5 μM, 37 °C): 88%
- viability at 72 h, 1 µM [1]: 113%
- viability at 72 h, 10 µM [1, 6]: 106%
- viability at 72 h, 10 µM [1, 7]: 106%
- remaining at 6 h, 5 μM [4]: 68%

Compound: N[C@H]1C[C@@H](OC(=O)[C@@H]2[C@H]3C[C@H]4c5[nH]c6ccccc6c5CCN4C[C@@H]3CC[C@@H]2O)C1 [Compound 4o, 17-α-Hydroxyyohimban-16-α-carboxylic Acid cis-3-Aminocyclobutyl Ester]
- remaining at 6 h, 5 μM ([2]; human plasma, 5 μM, 37 °C): 97 ± 5%
- recovery at 3 h, 5 µM (in vitro): 101%
- Papp A→B at 3 h, 5 µM (in vitro; 5 μM, pH 7.4/7.4, 3 h): 1 ×10⁻⁶ cm/s
- microsomal CLint at 10 µM [3]: 3 µL/min/mg
- viability at 72 h, 1 µM [1]: 84%
- viability at 72 h, 10 µM [1, 6]: 86%
- viability at 72 h, 10 µM [1, 7]: 86%
- remaining at 6 h, 5 μM [4]: 75%
- microsomal CLint at 10 µM [5]: 2 ± 1 µL/min/mg

Compound: CNCCOC(=O)[C@@H]1[C@H]2C[C@H]3c4[nH]c5ccccc5c4CCN3C[C@@H]2CC[C@@H]1O [Compound 4c, 17-α-Hydroxyyohimban-16-α-carboxylic Acid 2-(Methylamino)ethyl Ester]
- remaining at 6 h, 5 μM ([2]; human plasma, 5 μM, 37 °C): 91 ± 5%
- viability at 72 h, 1 µM [1]: 104%
- viability at 72 h, 10 µM [1, 6]: 91%
- viability at 72 h, 10 µM [1, 7]: 91%
- remaining at 6 h, 5 μM [4]: 80 ± 1%

Compound: O=C(OC[C@@H]1CCN1)[C@@H]1[C@H]2C[C@H]3c4[nH]c5ccccc5c4CCN3C[C@@H]2CC[C@@H]1O [Compound 4h, 17-α-Hydroxyyohimban-16-α-carboxylic acid (S)-Azetidin-2-ylmethyl Ester]
- viability at 72 h, 1 µM [1]: 116%
- viability at 72 h, 10 µM [1, 6]: 118%
- viability at 72 h, 10 µM [1, 7]: 118%

Compound: O=C(OC1CNC1)[C@@H]1[C@H]2C[C@H]3c4[nH]c5ccccc5c4CCN3C[C@@H]2CC[C@@H]1O [Compound 4m, 17-α-Hydroxyyohimban-16-α-carboxylic Acid Azetidin-3-yl Ester]
- remaining at 6 h, 5 μM ([2]; human plasma, 5 μM, 37 °C): 100 ± 3%
- recovery at 3 h, 5 µM (in vitro): 101%
- Papp A→B at 3 h, 5 µM (in vitro; 5 μM, pH 7.4/7.4, 3 h): 1 ×10⁻⁶ cm/s
- viability at 72 h, 1 µM [1]: 77%
- viability at 72 h, 10 µM [1, 6]: 77%
- viability at 72 h, 10 µM [1, 7]: 77%
- remaining at 6 h, 5 μM [4]: 70 ± 2%
- microsomal CLint at 10 µM [5]: 3 ± 2 µL/min/mg
